# Laboratory results published in EP0357092B1, “Preparation of diacetoxybenzylidene diacetates” (KUREHA KAGAKU KOGYO KABUSHIKI KAISHA, priority 1983, dated 1985).
# Where two headings read alike, the source gives them in different places.
# Columns and labels:
# [1] = system: proliferation of granuloma; assay: Suppression of proliferation of granuloma, filter paper implant method of Fujimura; format: in vivo, male Donryu rats; details: once a day for 10 days, rats, dried granuloma weighed after 11 days
# Method: While using groups of male Donryu rats in the fifth week after birth (5 rats per group), the activity of present substance No.1 in suppressing the proliferation of granuloma was tested by the method of Fujimura (refer to OYOYAKURI (Pharmacometrics), 19 (3), 329, 1980).
# After soaking sheets of filter paper of 13 mm in diameter and 28 mg in weight into an aqueous 2% solution of carboxymethylcellulose containing both dihydroxystreptomycin and penicillin, each of 10⁶ unit at the respective concentration of 0.1 mg/ml, each of the thus treated sheets was buried subcutaneously into the back of each rat under anaesthesia by ether. […] After 11 days of the treatment, granuloma formed in the rat was removed, dried for 24 hours at 70°C and weighed.
# [2] = system: migration of polymorphonuclear leukocytes (PMN) to the site of inflammation; assay: Suppression of migration of polymorphonuclear leukocytes, carboxymethylcellulose-pouch method; format: in vivo, male Donryu rats; details: rats, PMN counted 6 hours after injection into pouch
# Method: While using groups of male Donryu rats (six rats per group) and following the carboxymethylcellulose-pouch method (refer to Ishikawa et al. […] ZASSHI (Journal of the Pharmaceutical Society of Japan), 88, 1472, 1968), the extent of inhibition of migration of polymorphonuclear leukocytes to the site of inflammation by present substance No.1 was examined. The specimen (present substance No.1) was dispersed in an aqueous 0.2 % solution of carboxymethylcellulose and the dispersion was administered to each rat at a predetermined dose rate, and only the aqueous 0.2 % solution of carboxymethylcellulose was administered to each rat of control group. The test was carried out by injecting the aqueous 0.2 % solution of carboxymethyl-cellulose into the pouch formed in the body of the rat and after 6 hours of the injection, the number of polymorphonuclear leukocytes in the exudate into the pouch was counted. […]
# [3] = Acute mammalian toxicity (oral LD50); details: mouse, in vivo
# Method: After dispersing present substance No.1 in an aqueous 0.2 % solution of carboxymethylcellulose, the aqueous dispersion was orally administered to each of male Jcl-ICR mice. As a result, LD₅₀ (acute, oral) of the tested substance was larger than 4,000 mg/kg.
SMILES,Granuloma Rate of Suppression (%) ([1]; dose rate 50 mg/kg/day oral),Rate of suppression of migration of PMN (%) ([2]; dose rate 50 mg/kg),"LD50 ([3]; oral, male Jcl-ICR mice, dispersed in aqueous 0.2 % carboxymethylcellulose, read-out: LD₅₀ (acute, oral)) [mg/kg]",Rate of suppression of migration of PMN (%) ([2]; dose rate 5 mg/kg),Granuloma Rate of Suppression (%) ([1]; dose rate 3 mg/kg/day oral),Granuloma Rate of Suppression (%) ([1]; dose rate 5 mg/kg/day oral),Granuloma Rate of Suppression (%) ([1]; dose rate 10 mg/kg/day oral),Rate of suppression of migration of PMN (%) ([2]; dose rate 10 mg/kg),"LD50 ([3]; male, Jcl-ICR, po) [mg/kg]"
"O=Cc1ccc(O)c(O)c1 [3,4-dihydroxy-benzaldehyde, 3,4-dihydroxybenzaldehyde, reference compound]",35.6,27.5,1500,–,–,–,–,–,–
"COc1ccc2c(c1)c(CC(=O)O)c(C)n2C(=O)c1ccc(Cl)cc1 [Indomethacin, reference compound]",–,–,–,35.7,–,–,–,–,–
"C[C@]12C=CC(=O)C=C1CC[C@@H]1[C@@H]2[C@@H](O)C[C@@]2(C)[C@H]1CC[C@]2(O)C(=O)CO [Prednisolone, reference compound]",–,–,–,37.5,42.2,–,–,–,–
"CC(=O)Oc1ccc(C(OC(C)=O)OC(C)=O)cc1OC(C)=O [Present Substance No.1, 3,4-diacetoxybenzylidene diacetate]",61.4,51.9,–,41.2,–,42.8,55.3,48.0,> 4000
